Key:
[1] = test system: kidney from a donation after circulatory death donor of a rat; test: hypothermic oxygenated perfusion of rat donation-after-circulatory-death kidney ex-vivo, perfusion parameters (intrarenal resistance); settings: Examples 1-4: 200, 400, 600, 800 μM in KPS-1 solution, warm ischemia 30, 45, 60, 90 min, 0-4 °C, 30 mmHg, 2 h perfusion, FIGS. 2A-2D
Experimental: The method for performing hypothermic oxygenated perfusion on a kidney from a donation after circulatory death donor of a rat by using the perfusion fluid according to the examples of the present invention specifically includes the following steps: for a donor organ donated after a cardiac death, in the kidney acquisition process, performing in-situ organ lavage by using heparin sodium saline with a temperature of 4° C. to effectively remove thrombus in large blood vessels and to relieve the obstacle of the thrombus to the delivery of carbon monoxide released by carbon monoxide-releasing molecules to the kidney, combining ex-vivo hypothermic oxygenated perfusion with the carbon monoxide released by the carbon monoxide-releasing molecules to specifically achieve the vasodilation, the removal of microthrombus and the recovery of the patency of the microcirculation, and evaluating the function and quality of the kidney through perfusion parameters (perfusion flow and intrarenal resistance) and a macroscopic kidney state, wherein the perfusion parameters can reflect the kidney function to a certain degree; a kidney with a good function can be subjected to allogeneic kidney transplantation and a kidney with a poor function will be discarded. […]

[2] = test system: kidney from a donation after circulatory death donor of a rat; test: H&E pathological examination of renal tissues after 2 h of kidney perfusion; settings: Examples 1-4: 200, 400, 600, 800 μM in KPS-1 solution; warm ischemia 30, 45, 60, 90 min; after 2 h perfusion; FIGS. 3A-3D
Experimental: After 2 h of kidney perfusion according to the methods of Examples 1-4, 1 cm^3 of renal tissues were taken out and fixed in neutral formaldehyde for storage, and then dehydrated, embedded in paraffin, sectioned and then stained by H&E, and finally photographed under a microscope to observe morphological changes and pathological analysis of tissues.

Substance: carbon monoxide-releasing molecules-401
- intrarenal resistance during hypothermic oxygenated perfusion ([1]; listed as carbon monoxide-releasing molecule): continuously decrease
- intrarenal resistance during hypothermic oxygenated perfusion ([1]; listed as carbon monoxide-releasing molecules): significantly reduced and maintained to be stable
- pathological examination of renal tissues (glomeruli, renal tubules, renal interstitium; H&E) [2]: no obvious abnormality found

Reference: US20240172744A1, “H[…] SOLUTION FOR REPAIRING KIDNEY INJURY AND USE THEREOF” (WUHAN UNIVERSITY, priority 2022, published 2024)
